Measurements taken from publication PMC4584354, “Synthesis and Antiplasmodial Evaluation of Analogues Based on the Tricyclic Core of Thiaplakortones A–D” (Marine Drugs, 2015).
Read-outs that look alike come from different tables or passages of the source.

Assays:
[1] = test system: P. falciparum multidrug-resistant line (Dd2); experiment: P. falciparum growth inhibition assay ([3H]-hypoxanthine isotopic microtest), Dd2 line; assay type: cell-based; conditions: Plasmodium falciparum, read-out: Mean IC50 ± SD, Dd2
Method: (§1) P. falciparum growth inhibition assays were carried out using an isotopic microtest, as previously described [16]. […] The final concentration of DMSO vehicle was <0.5% in all assay wells (non-toxic). After 48 h cells were harvested onto 1450 MicroBeta filter mats (PerkinElmer, Waltham, Massachusetts, USA) and [^3H] incorporation determined using a 1450 MicroBeta liquid scintillation counter. Percentage inhibition of growth compared to matched DMSO controls was determined and IC50 values were calculated using linear interpolation of inhibition curves [17]. The mean IC50 or % inhibition (±SD) was calculated for three independent experiments, each carried out in triplicate.

[2] = test system: P. falciparum chloroquine-sensitive line (3D7); experiment: P. falciparum growth inhibition assay ([3H]-hypoxanthine isotopic microtest), 3D7 line; assay type: cell-based, Plasmodium falciparum; conditions: for IC50: Plasmodium falciparum, read-out: Mean IC50 ± SD, 3D7; for increase in 3D7 activity on exchanging saturated system (13, 14) for unsaturated motif: 15 vs 13, 16 vs 14
Method: as §1

[3] = test system: neonatal foreskin fibroblast (NFF) cells; experiment: Mammalian toxicity using human neonatal foreskin fibroblast cells; assay type: cell-based; conditions: for IC50: Homo sapiens, NFF, read-out: Mean IC50 ± SD, NFF; for SI (selectivity index = NFF cell-line IC50/P. falciparum IC50): range over 3D7 and Dd2 lines
[4] = design: method as in PMID 25490858; conditions: cited from earlier work
[5] = design: method as in PMID 25490858; conditions: cited from earlier work; remark: listed apart in the source
[6] = design: method as in PMID 25490858; conditions: subcutaneous 32 mg/kg twice daily for 4 d; cited from earlier work
blood stage P. berghei = test system: blood stage P. berghei; design: method as in PMID 25490858; conditions: mice, subcutaneous 32 mg/kg twice daily for 4 d; cited from earlier work
[7] = design: method as in PMID 25490858; conditions: administered subcutaneously to mice; remained above this level for 8 h; cited from earlier work
Plasmodium falciparum = experiment: In vitro P. falciparum growth inhibition (line not given); assay type: cell-based; conditions: 3D7 and Dd2 lines
[8] = test system: P. falciparum multidrug-resistant line (Dd2); design: method as in PMID 24032556; conditions: read-out: in vitro IC50, Dd2; cited from earlier work
[9] = test system: P. falciparum chloroquine-sensitive line (3D7); design: method as in PMID 24032556; conditions: chloroquine-sensitive (3D7) P. falciparum line; read-out: in vitro IC50, 3D7; cited from earlier work
[10] = P. falciparum multidrug-resistant line Dd2, 48 h, three independent experiments in triplicate
[11] = P. falciparum chloroquine-sensitive line 3D7, 48 h, three independent experiments in triplicate
[12] = neonatal foreskin fibroblast cells

IC50 [1, 10] [µM]	IC50 [2, 11] [µM]	Compound	SI (selectivity index = NFF cell-line IC50/P. falciparum IC50) [3]	IC50 [3, 12] [µM]	also measured
		CCN(CC)CCCC(C)Nc1ccnc2cc(Cl)ccc12 (stereo not drawn) [CQ, chloroquine, reference compound]	811.1–4679.5		IC50 ([1]; DD2, 48 h): 0.045 ± 0.01 µM; IC50 ([2]; 3D7, 48 h): 0.0078 ± 0.0027 µM; IC50 [3]: 36.5 µM
		CC(=O)NCCc1c[nH]c2c1C(=O)C1=C(NC=CS1(=O)=O)C2=O [Compound 8]			solubility [4]: good; metabolic stability [5]: good; tolerability in mice [6]: well tolerated; suppression of blood stage P. berghei parasitemia relative to controls (blood stage P. berghei): 52%; plasma concentration [7]: > 200 nM
		CCCCNC(=O)NCCc1c[nH]c2c1C(=O)C1=C(NC=CS1(=O)=O)C2=O [Compound 9]			solubility [4]: good; metabolic stability [5]: good; tolerability in mice [6]: well tolerated; suppression of blood stage P. berghei parasitemia relative to controls (blood stage P. berghei): 26%; plasma concentration [7]: > 200 nM
11.1	18.2	Cc1ccc(S(=O)(=O)n2ccc3c2C(=O)C=CC3=O)cc1 [Compound 10, 1-tosyl-1H-indole-4,7-dione]	0.4–0.7	7.6 ± 1.2	antiplasmodial activity (Plasmodium falciparum): essentially inactive
0.509 ± 0.309	0.546 ± 0.119	Cc1ccc(S(=O)(=O)n2ccc3c2C(=O)C2=C(NCCS2(=O)=O)C3=O)cc1 [Compound 11]		1.4 ± 0.7	
0.607 ± 0.158	0.834 ± 0.089	Cc1ccc(S(=O)(=O)n2ccc3c2C(=O)C2=C(C3=O)S(=O)(=O)CCN2)cc1 [Compound 12]	22.8–31.3	19	
3.8 ± 0.4	7.5 ± 0.9	O=C1C2=C(C(=O)c3[nH]ccc31)S(=O)(=O)CCN2 [Compound 13]	5.2–10.3	39	
3.7 ± 0.5	6.9 ± 0.7	O=C1C2=C(NCCS2(=O)=O)C(=O)c2[nH]ccc21 [Compound 14]	10.1–18.8	69.6	
0.129 ± 0.0039	0.313 ± 0.084	O=C1C2=C(C(=O)c3[nH]ccc31)S(=O)(=O)C=CN2 [Compound 15]	8.9–21.7	2.8 ± 0.4	increase in 3D7 activity on exchanging saturated system (13, 14) for unsaturated motif [2]: 23.9 fold
0.127 ± 0.0086	0.252 ± 0.035	O=C1C2=C(NC=CS2(=O)=O)C(=O)c2[nH]ccc21 [Compound 16]	18.2–36.2	4.6 ± 0.8	increase in 3D7 activity on exchanging saturated system (13, 14) for unsaturated motif [2]: 27.3 fold
11.5	13.5	O=C1C=CC(=O)c2[nH]ccc21 [Compound 17, 1H-indole-4,7-dione]	0.3–0.4	4.7 ± 0.1	antiplasmodial activity (Plasmodium falciparum): essentially inactive
		NCCc1c[nH]c2c1C(=O)C1=C(NC=CS1(=O)=O)C2=O [Thiaplakortone A, thiaplakortone A]			IC50 [8]: 0.0066 µM; IC50 [9]: 0.051 µM
